The values below come from publication PMC6066796 (Antiviral Research, 2018).

Where two headings read alike, the source gives them in different places.

For assay [1], the system named is recombinant EBOV (Mayinga variant). Type of assay: cell-based, Ebola virus. The conditions noted are these: read-out: Approximate EC50 against recombinant reporter EBOV variants.
In the next assay the test system is RAVV (Ravn variant). Type of assay: cell-based, Ravn virus.
Another assay concerns HeV. To be noted: cited from earlier work.
The subject of a further assay is NiV (Malaysian genotype). To be noted: cited from earlier work.

With “2′-monofluoro-4′-azidocytidine [2′F-4′N3-C]”, in assay [1], the EC50 lay within 3 to 8 µM. In addition, in the assay with RAVV (Ravn variant), the “Reduction of infectious RAVV titers” value is “roughly 1.5 orders of magnitude”.

Take `[N-]=[N+]=N[C@]1(CO)O[C@@H](n2ccc(N)nc2=O)[C@H](O)[C@@H]1O` [R1479, 4′-azidocytidine]: the values for the EC50 (in the assay on HeV; in assay [1]; in the assay with NiV (Malaysian genotype)) were 2.4 µM, approximately 2 µM and 1.5 µM, respectively. In addition, the “Reduction of infectious RAVV titers” value in the assay with RAVV (Ravn variant) (at 50 μM) is given as “over 4 orders of magnitude”.

For orientation: EC50 means the concentration giving half of the maximal effect.
